Assay results: patent US9012411B2, “Formulations from derivatives of curcumin, paclitaxel, and aspirin” (Organomed Corporation, priority 2009, dated 2015)
Values after ≈ are worked out from the molar mass of the structure shown.

How the values were obtained:
Assay type in all cases: cell-based
[1] = tested on: breast (SKBR3) cancer cell line; assay: Cellular inhibition, Alamar Blue; conditions: Homo sapiens, SK-BR-3
Experimental: (§1) Assays were performed with 3 cancer cell lines: breast (SKBR3), pancreatic (Panc1), prostate (PC-3) and 1 normal (nor-cancer) cell line (WI-38). Compounds were delivered to the cells after dissolving in DMSO. Five dilutions per compound were tested on a total of 4 cell lines in 96 well plates. Cellular inhibition was measured using Alamar Blue. After addition of compound a 24 hour and 48 hour time point using fluorescent plate reader was taken. Data from plate reader was analyzed in the following way: % inhibition bar graphs, % inhibition line graphs and IC50 growth inhibition values. In Tables 7-14, IC50 units are Molar (M).

[2] = tested on: normal (non-cancer) cell line WI-38; assay: Cellular inhibition, Alamar Blue; conditions: for IC50: Homo sapiens, WI-38
Experimental: as §1

[3] = tested on: pancreatic (Panc1) cancer cell line; assay: Cellular inhibition, Alamar Blue; conditions: Homo sapiens, PANC-1
Experimental: as §1

[4] = tested on: prostate (PC-3) cancer cell line; assay: Cellular inhibition, Alamar Blue
Experimental: as §1

PANC-1 cells [5] = assay: GI50 (50% inhibition of cell growth), MTT assay, 72 hours; conditions: Homo sapiens, PANC-1, 72 h
Experimental: (§2) The cells were plated onto a 96 well plate and treated with different concentrations of the compounds from 1 ng/ml to 10 ug/ml for 72 hours followed by MTT assay.
(§3) The cells were plated onto a 96 well plate and treated with different concentrations of the compounds from 0.04 ng/ml to 400 ng/ml for 72 hours followed by MTT assay.

PC3 cells [6] = assay: as above; conditions: Homo sapiens, PC-3, 72 h, PC3, 72 hours
Experimental: as §2, §3

SK-BR-3 cells [7] = assay: as above; conditions: Homo sapiens, SK-BR-3, 72 h
Experimental: as §2, §3

WI38 normal cell line [8] = assay: as above; conditions: Homo sapiens, WI-38, 72 h, WI38, 72 hours
Experimental: as §2, §3

PANC-1 cells [9] = assay: EC50 cytotoxicity, MTT assay, 48 hours; conditions: Homo sapiens; PANC-1, 48 hours, 0.04 ng/ml to 400 ng/ml
Experimental: (§4) Cytotoxicity of the compounds on three different cancer cell lines and one normal cell line was tested. Four human cell lines including both cancer cell lines (SK-BR-3, PANC-1, PC3) and normal cell line (W138) were initially employed. The cells (20,000 cells/well) were plated onto a 96-well plate for 24 hours before treatment. The compounds were diluted in the medium and added to the cells at different concentrations for additional 48 hours from 0.04 ng/ml to 400 ng/ml. MTT assay was then performed.

PC3 cells [10] = assay: EC50 cytotoxicity, MTT assay, 48 hours; conditions: Homo sapiens, PC-3; PC3, 48 hours, 0.04 ng/ml to 400 ng/ml
Experimental: as §4

SK-BR-3 cells [11] = assay: EC50 cytotoxicity, MTT assay, 48 hours; conditions: Homo sapiens; SK-BR-3, 48 hours, 0.04 ng/ml to 400 ng/ml
Experimental: as §4

WI38 normal cell line [12] = assay: EC50 cytotoxicity, MTT assay, 48 hours; conditions: Homo sapiens, WI-38; WI38, 48 hours, 0.04 ng/ml to 400 ng/ml
Experimental: as §4

[13] = 0.04 ng/ml to 400 ng/ml (Example 14)
[14] = 1 ng/ml to 10 ug/ml (Example 8)

- IC50 ([1]; SKBR3, 24 hours): 694 nM
- IC50 ([1]; SKBR3, 48 hours): 3230 nM
- IC50 ([3]; PANC1, 24 hours): 153 nM
- IC50 ([3]; PANC1, 48 hours): 180 nM
- IC50 ([4]; PC3, 24 hours): 58.1 nM
- IC50 ([4]; PC3, 48 hours): 80.3 nM
- GI50 (PANC-1 cells [5]; [13]): 5.46 ng/mL (≈ 6.39 nM)
- GI50 (PANC-1 cells [5]; [14]): 1.8 ng/mL (≈ 2.11 nM)
- GI50 (PC3 cells [6]; [13]): 0.05 ng/mL (≈ 0.0586 nM)
- GI50 (PC3 cells [6]; [14]): 258 ng/mL (≈ 302 nM)
- GI50 (SK-BR-3 cells [7]; [13]): 0.78 ng/mL (≈ 0.913 nM)
- GI50 (SK-BR-3 cells [7]; [14]): 1.15 ng/mL (≈ 1.35 nM)
SMILES: CC(=O)O[C@H]1C(=O)[C@@]2(C)[C@H]([C@H](OC(=O)c3ccccc3)[C@]3(O)C[C@H](OC(=O)[C@H](O)[C@@H](NC(=O)c4ccccc4)c4ccccc4)C(C)=C1C3(C)C)[C@]1(OC(C)=O)CO[C@@H]1C[C@@H]2O [Taxol, Paclitaxel]
- Effect on normal cell growth (WI-38) (in words) ([2]; 48 hours): some effect on normal cell growth
- IC50 ([2]; WI38, 24 hours): 19100 nM
- IC50 ([2]; WI38, 48 hours): 80000 nM
- inhibition ([4]; PC-3, 48 hours, all concentrations): ~60%
- GI50 (WI38 normal cell line [8]; [13]): 5.6 ng/mL (≈ 6.56 nM)
- GI50 (WI38 normal cell line [8]; [14]): 514 ng/mL (≈ 602 nM)
- EC50 (PANC-1 cells [9]): 32.8 ng/mL (≈ 38.4 nM)
- EC50 (PC3 cells [10]): 8.51 ng/mL (≈ 9.97 nM)
- EC50 (SK-BR-3 cells [11]): 36.1 ng/mL (≈ 42.2 nM)
- EC50 (WI38 normal cell line [12]): 37.9 ng/mL (≈ 44.4 nM)
